Data set [1] has as its system Caco-2. Nature of the data set: Cytotoxicity in human Caco2 cells assessed as reduction in ATP metabolism at 100 uM incubated for 24 hrs by cell-titer-Glo luminescent cell viability assay. As to conditions: caco-2, 24 h. Format: ADME, cell-based.
The subject of data set [2] is Caco-2. Nature of the data set: Cytotoxicity in human Caco2 cells assessed as reduction in ATP metabolism at 1 to 50 uM incubated for 24 hrs by cell-titer-Glo luminescent cell viability assay. The format is ADME, cell-based. Conditions: caco-2, 24 h.
Data set [3] concerns Caco-2. Briefly: Effect on barrier function in human Caco2 cells assessed as LY transport at 10 uM pre-treated on apical side for 1 hr and measured after 48 hrs. Format: ADME, cell-based. Conditions: caco-2, 48 h.
Data set [4] concerns Caco-2. Briefly: Increase in transepithelial electrical resistance in human Caco2 cells at 10 uM pre-treated on apical side and measured after 36 to 72 hrs. The format is functional, cell-based.
Data set [5] deals with Caco-2. Nature of the data set: Inhibition of TNFalpha induced barrier dysfunctionin human Caco2 cells assessed as increase in transepithelial electrical resistance at 10 uM pre-treated on apical side for 1 hr before TNFalpha stimulation on basolateral side for 72 hrs by cellZScope monitoring device based assay. The format is functional, cell-based.
Data set [6] has as its system Caco-2. Briefly: Inhibition of TNFalpha induced barrier dysfunctionin human Caco2 cells assessed as increase in transepithelial electrical resistance at 10 uM treated on apical side for 1 hr post TNFalpha stimulation on basolateral side for 24 hrs and measured after 72 hrs by cellZScope monitoring device based assay. Format: functional, cell-based.
For data set [7], the system named is Caco-2. Briefly: Cytotoxicity in human Caco2 cells assessed as reduction in ATP metabolism at 50 to 100 uM incubated for 24 hrs by cell-titer-Glo luminescent cell viability assay. Format: ADME, cell-based. Conditions: caco-2, 24 h.
Data set [8] relates to Caco-2. Briefly: Stimulation of growth in human Caco2 cells assessed as […] in ATP metabolism at 10 uM incubated for 24 hrs by cell-titer-Glo luminescent cell viability assay. Format: functional, cell-based.
In data set [9] the test system is Caco-2. Briefly: Inhibition of TNFalpha induced barrier dysfunctionin human Caco2 cells assessed as prevention of morphological changes in ZO1 protein at 10 uM pre-treated on apical side for 1 hr before TNFalpha stimulation on basolateral side for 48 hrs by confocal laser scanning microscopy. The format is functional, cell-based.
The test system of data set [10] is Caco-2. Briefly: Cytotoxicity in human Caco2 cells assessed as reduction in ATP metabolism at 1 to 100 uM incubated for 24 hrs by cell-titer-Glo luminescent cell viability assay. Conditions: caco-2, 24 h. Format: ADME, cell-based.

The structures appear in SMILES notation. Calls of active or inactive are those of the source. The rule behind the calls is not given here.

Turning to `CC(C)=CCc1c(O)cc2c(c1O)C(=O)CC(c1ccc(O)cc1)O2` (centres undefined), the Activity in the data set with Caco-2 [1] is reported as 18%; with Caco-2 [2], “Non-Toxic”; in the data set with Caco-2 [3] it was “Non-Toxic”. Besides, the outcome in the data set with Caco-2 [4] was Active. Moreover, in the data set with Caco-2 [5], the inhibition entry is “Active”. Moreover, the inhibition result in the data set on Caco-2 [6] is “inactive”.

As to `COc1cc(O)c(CC=C(C)C)c(O)c1C(=O)/C=C/c1ccc(O)cc1` [XANTHOHUMOL], the Activity is on record as 55.3% in the data set with Caco-2 [7] and “Non-Toxic” in the data set with Caco-2 [3]. Further, the result with Caco-2 [8] and in the data set on Caco-2 [4] was Active. The inhibition result in the data set with Caco-2 [5], in the data set on Caco-2 [6] and with Caco-2 [9] was “inactive” throughout.

`CC(C)=CCc1c(O)cc(O)c2c1O[C@H](c1ccc(O)cc1)CC2=O`: the Activity result in the data set on Caco-2 [10] and in the data set on Caco-2 [3] was “Non-Toxic” in each case. Also, the result in the data set on Caco-2 [4] was Active. Further, the inhibition result in the data set with Caco-2 [5], with Caco-2 [6] and in the data set on Caco-2 [9] was “Active” throughout.

The values above are taken from ChEMBL document CHEMBL4270483, “Effect of Hops Derived Prenylated Phenols on TNF-α Induced Barrier Dysfunction in Intestinal Epithelial Cells” (J Nat Prod, 2017).
